The values that follow come from publication PMC7791840, “The R-enantiomer of ketorolac reduces ovarian cancer tumor burden in vivo” (BMC Cancer, 2021).

Entries after “also recorded” stand apart in the source; their conditions may differ. Structures can show the parent of a compound that is named as a salt.

For one test, the target named is T1, Rac1 (Homo sapiens, UniProt P63000).
T1 construct: Frozen tumor samples were lysed without thawing; from tissue; host or cells: peritoneal SKOV3ip-GFP xenograft tumours from treated mice
In words: Flow cytometric GTPase effector binding assay in tumor lysates (Rac1). It is filed as in vivo. Particulars: oral 1 mg/kg twice daily, 2 weeks; vs placebo. How it is done:
(§1) GTPase effector binding assays were carried out according to the protocols described previously. Frozen tumor samples were lysed without thawing with the addition of RIPA lysis buffer with the following modifications (no β-glycerphosphate,1 mM NaF and protease, 1% (v/v) NP-40 (nonyl phenoxypolyethoxylethanol) inhibitors consisting 10 μg/ml each of chymostatin, leupeptin, pepstatin and antipain). Protein concentrations were determined using GLISA quick protein concentration kit and lysates were adjusted to uniform protein concentrations of 0.5 mg/ml. Insoluble debris was removed by centrifugation at 14,000 RPM in a cold microfuge and the supernatants were incubated with GTPase effector coated beads (PAK1-PBD for Cdc42 and Rac1) for 1 h at 4 °C with rotation. Primary antibodies directed against Cdc42 or Rac1 and secondary antibody Alexa 488 were incubated with the beads for 1 h. Fluorescence intensity MCF (mean channel fluorescence) was used to measure the amount of active intracellular GTPase. MCF was measured by flow cytometry (Accuri C6, BD Biosciences). GTPase activity was calculated as (MCFsample group – MCFunstimulated negative control) / MCFstimulated positive control.

The next test deals with T2, Cdc42 (Homo sapiens, UniProt P60953).
T2 construct: Frozen tumor samples were lysed without thawing; from tissue; host or cells: peritoneal SKOV3ip-GFP xenograft tumours from treated mice
T2 sequence (P60953 whole entry): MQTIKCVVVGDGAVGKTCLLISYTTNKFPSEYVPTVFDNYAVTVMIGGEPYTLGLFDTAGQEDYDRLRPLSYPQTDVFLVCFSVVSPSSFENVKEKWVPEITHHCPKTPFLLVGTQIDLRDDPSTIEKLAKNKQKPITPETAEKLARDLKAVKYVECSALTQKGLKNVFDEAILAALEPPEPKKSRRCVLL
In words: Flow cytometric GTPase effector binding assay in tumor lysates (Cdc42). It is filed as in vivo. The following applies: oral 1 mg/kg twice daily, 2 weeks; vs placebo. How it is done: as §1

Test [1] deals with SKOV3ip-GFP cells. In words: Two-week intraperitoneal tumor growth model (tumor burden). It is filed as in vivo, mice. The following applies: 1 mg/kg twice daily oral, 14 days, vs placebo. The source says:
For two-week tumor studies, 1 × 10^6 non-treated SKOV3ip-GFP cells were i.p. injected. All mice started R-ketorolac treatment one day prior to cell injection and continued treatment until conclusion of the study 14 days later. Mice were imaged using a Light Tools imaging system (Synopsys Optical Solutions, Westminster CO) with long pass GFP filters. Three images per mouse were captured to ensure all tumors were counted. Green fluorescent tumors were identified and counted in the peritoneal cavity as single tumors if there was a distinct border of non-fluorescent tissue. Tumor burden of the omentum occurred either as one large tumor or a bundle of tumors and was not included in the final analysis of tumor number. Total tumor counts from the peritoneal cavity were normalized to placebo treated animals within individual experiments. Blood was collected via cardiac puncture and ketorolac enantiomer concentrations were measured by HPLC analysis as described in Supplemental Methods (Additional File 1: Supplemental Methods). […]

The test system of a further test is COX-1. Also on record: method as in PMID 26558612, PMID 10027870. The following applies: cited from earlier work.
Test [2] concerns SKOV3ip-GFP cells. As to the kind of experiment: Measurement of omental weight. It is filed as in vivo, mice. The following applies: two-week tumor study, 1 mg/kg twice daily; no significant differences between groups. The source says: page 1: SUPPLEMENTAL METHODS Cell Culture and Reagents SKOV3ip cells were modified to express GFP-Rac1 by transfection with pcDNA3-EGFP-Rac1- wt (Catalog # 12980, Addgene) as described for SKOV3ip-GFP cells under Methods. Rac1 overexpression quantification and verification was completed by western blot and qPCR. SKOV3ip-GFP and SKOV3ip-GFP-Rac1 cell populations were further enriched by flow sorting for GFP positive cells. SKOV3ip-GFP-Rac1 cell lines were maintained under the same selection as described for SKOV3ip-GFP cells (Methods). In vivo Drug Dosing Racemic (R-/S-) ketorolac tromethamine salt was purchased from Sigma (St. Louis MO, cat# K1136), S-ketorolac was purchased from Toronto Research Chemicals (Toronto Canada, cat# K235602) and dissolved in water or 100% ethanol, respectively . Mice received twice daily […] mg/kg of body weight. Measurement of Omental Weight Omental tissue was harvested and stored on ice in PBS for no more than 1 hour before analysis. Omenta were blotted dry on lab tissue and weight was measured using an analytical balance (Denver Instruments Company, A -160). There was a non-significant decreasing trend in omental weight for treated mice when compared to placebo mice ( Additional File 3: Table S1). […] Ketorolac was detected using a UV spectrometer set at UV310. […]

For `O=C(c1ccccc1)c1ccc2n1CC[C@H]2C(=O)O` [R-ketorolac], the “Rac1 GTPase activity in tumor lysates” value at Rac1 is reported as “significantly decreased”. For the same compound, on Cdc42, the “Cdc42 GTPase activity in tumor lysates” value is on record as “significantly decreased”. The “Tumor burden (tumor implants within the peritoneal cavity)” value in the test with SKOV3ip-GFP cells [1] is listed as “significantly fewer tumor implants; also recorded: significantly decreased tumor burden”. In the test with COX-1, the IC50 is over 100 µM. For the same compound, the “Omental weight, Mean ± SD” value in the test on SKOV3ip-GFP cells [2] worked out at 0.059 ± 0.018 g.
As to `O=C(c1ccccc1)c1ccc2n1CCC2C(=O)O` (stereo not drawn) [R−/S-ketorolac, ketorolac tromethamine salt], the “Rac1 GTPase activity in tumor lysates” value at Rac1 is recorded as “Inhibition of the target GTPases was evident”. Also, the “Cdc42 GTPase activity in tumor lysates” value on Cdc42 is on record as “Inhibition of the target GTPases was evident”. In addition, the “Tumor burden (tumor implants within the peritoneal cavity)” value in the test with SKOV3ip-GFP cells [1] (listed as Racemic drug) is listed as “significantly decreased tumor burden”. The “Omental weight, Mean ± SD” value in the test on SKOV3ip-GFP cells [2] came to 0.058 ± 0.026 g.
